According to patent US7015215B2, “Pyrrolo[2,1-c][1,4] benzodiazepines compounds and process thereof” (Council of Scientific and Industrial Research, priority 2003, dated 2006):

Tests used:
[1] = system: human tumor cell lines; assay: NCI in vitro cytotoxicity SRB assay, mean graph midpoints over the panel; type: cell-based; conditions: 48 h continuous exposure
Method: (§1) Biological Activity: In vitro biological activity studies were carried out at National Cancer Institute (U.S.A.).
(§2) For each compound, dose response curves for each cell line were measured at a minimum of five concentrations at 10 fold dilutions. A protocol of 48 h continuous drug exposure was used, and a sulforhodamine B (SRB) protein assay was used to estimate cell viability or growth. The concentration causing 50% cell growth inhibition (GI50), total cell growth inhibition (TGI, 0% growth) and 50% cell death (LC50, −50% growth) compared with the control was calculated.

[2] = system: K-62; assay: NCI SRB cytotoxicity, Leukemia K-62; type: cell-based, human; conditions: K-62, Leukemia, 48 h
Method: as §1, §2

[3] = system: RPMI-8226; assay: NCI SRB cytotoxicity, Leukemia RPMI-8226; type: cell-based, human; conditions: RPMI-8226, Leukemia, 48 h
Method: as §2

[4] = system: EKVX; assay: NCI SRB cytotoxicity, Non-small-cell lung EKVX; type: cell-based, human; conditions: 48 h
Method: as §1, §2

[5] = system: HOP-92; assay: NCI SRB cytotoxicity, Non-small-cell lung HOP-92; type: cell-based, human; conditions: HOP-92, Non-small-cell lung, 48 h
Method: as §1, §2

[6] = system: NCI-H226; assay: NCI SRB cytotoxicity, Non-small-cell lung NCI-H226; type: cell-based, human; conditions: 48 h
Method: as §1, §2

[7] = system: NCI-H23; assay: NCI SRB cytotoxicity, Non-small-cell lung NCI-H23; type: cell-based, human; conditions: 48 h
Method: as §1, §2

[8] = system: NCI-H322; assay: NCI SRB cytotoxicity, Non-small-cell lung NCI-H322; type: cell-based, human; conditions: 48 h
Method: as §1, §2

[9] = system: NCI-H460; assay: NCI SRB cytotoxicity, Non-small-cell lung NCI-H460; type: cell-based, human; conditions: 48 h
Method: as §1, §2

[10] = system: NCI-H522; assay: NCI SRB cytotoxicity, Non-small-cell lung NCI-H522; type: cell-based, human; conditions: 48 h
Method: as §1, §2

[11] = system: COLO 205; assay: NCI SRB cytotoxicity, Colon COLO 205; type: cell-based, human; conditions: COLO 205, Colon, 48 h
Method: as §1, §2

[12] = system: HCC-2998; assay: NCI SRB cytotoxicity, Colon HCC-2998; type: cell-based, human; conditions: HCC-2998, Colon, 48 h
Method: as §1, §2

[13] = system: HCT-116; assay: NCI SRB cytotoxicity, Colon HCT-116; type: cell-based, human; conditions: HCT-116, Colon, 48 h
Method: as §1, §2

[14] = system: HT-29; assay: NCI SRB cytotoxicity, Colon HT-29; type: cell-based, human; conditions: HT-29, Colon, 48 h
Method: as §1, §2

[15] = system: SF-268; assay: NCI SRB cytotoxicity, CNS SF-268; type: cell-based, human; conditions: SF-268, CNS, 48 h
Method: as §1, §2

[16] = system: SF-295; assay: NCI SRB cytotoxicity, CNS SF-295; type: cell-based, human; conditions: SF-295, CNS, 48 h
Method: as §1, §2

[17] = system: SF-539; assay: NCI SRB cytotoxicity, CNS SF-539; type: cell-based, human; conditions: SF-539, CNS, 48 h
Method: as §1, §2

[18] = system: SNB-19; assay: NCI SRB cytotoxicity, CNS SNB-19; type: cell-based, human; conditions: SNB-19, CNS, 48 h
Method: as §1, §2

[19] = system: SNB-75; assay: NCI SRB cytotoxicity, CNS SNB-75; type: cell-based, human; conditions: SNB-75, CNS, 48 h
Method: as §1, §2

[20] = system: U251; assay: NCI SRB cytotoxicity, CNS U251; type: cell-based, human; conditions: 48 h
Method: as §1, §2

[21] = system: MALME-3M; assay: NCI SRB cytotoxicity, Melanoma MALME-3M; type: cell-based, human; conditions: 48 h
Method: as §1, §2

[22] = system: SK-MEL-2; assay: NCI SRB cytotoxicity, Melanoma SK-MEL-2; type: cell-based, human; conditions: SK-MEL-2, Melanoma, 48 h
Method: as §1, §2

[23] = system: SK-MEL-28; assay: NCI SRB cytotoxicity, Melanoma SK-MEL-28; type: cell-based, human; conditions: SK-MEL-28, Melanoma, 48 h
Method: as §1, §2

[24] = system: SK-MEL-5; assay: NCI SRB cytotoxicity, Melanoma SK-MEL-5; type: cell-based, human; conditions: SK-MEL-5, Melanoma, 48 h
Method: as §1, §2

[25] = system: IGROVI; assay: NCI SRB cytotoxicity, Ovarian IGROVI; type: cell-based, human; conditions: 48 h
[26] = system: OVCAR-3; assay: NCI SRB cytotoxicity, Ovarian OVCAR-3; type: cell-based, human; conditions: OVCAR-3, Ovarian, 48 h
Method: as §1, §2

[27] = system: 786-0; assay: NCI SRB cytotoxicity, Renal 786-0; type: cell-based, human; conditions: 786-0, Renal, 48 h
Method: as §1, §2

[28] = system: ACHN; assay: NCI SRB cytotoxicity, Renal ACHN; type: cell-based, human; conditions: 48 h
Method: as §1, §2

[29] = system: RXF 393; assay: NCI SRB cytotoxicity, Renal RXF 393; type: cell-based, human; conditions: RXF 393, Renal, 48 h
Method: as §2

[30] = system: PC-3; assay: NCI SRB cytotoxicity, Prostate PC-3; type: cell-based, human; conditions: PC-3, Prostate, 48 h
Method: as §2

[31] = system: DU-145; assay: NCI SRB cytotoxicity, Prostate DU-145; type: cell-based, human; conditions: DU-145, Prostate, 48 h
Method: as §2

[32] = system: MCF7; assay: NCI SRB cytotoxicity, Breast MCF7; type: cell-based, human; conditions: 48 h
Method: as §1, §2

[33] = system: MDA-MB-231/ATCC; assay: NCI SRB cytotoxicity, Breast MDA-MB-231/ATCC; type: cell-based, human; conditions: 48 h
Method: as §1, §2

[34] = system: HS578T; assay: NCI SRB cytotoxicity, Breast HS578T; type: cell-based, human; conditions: 48 h
Method: as §1, §2

[35] = system: MDA-MB-435; assay: NCI SRB cytotoxicity, Breast MDA-MB-435; type: cell-based, human; conditions: MDA-MB-435, Breast, 48 h
Method: as §1, §2

[36] = system: BT-549; assay: NCI SRB cytotoxicity, Breast BT-549; type: cell-based, human; conditions: BT-549, Breast, 48 h
Method: as §1, §2

[37] = system: T-47D; assay: NCI SRB cytotoxicity, Breast T-47D; type: cell-based, human; conditions: 48 h
Method: as §1, §2

[38] = system: HL-60(TB); conditions: Leukemia, 48 h, SRB
Method: as §1, §2

COc1cc2c(cc1OCCCN1CCN(CCCOc3cc4c(cc3OC)C(=O)N3CCC[C@H]3C=N4)CC1)N=C[C@@H]1CCCN1C2=O [Compound VIb, 1,1′-{[(bispropane-1,N-diyl)piperazine]dioxy}bis[(11aS)-7-methoxy-1,2,3,11a-tetrahydro-5H-pyrrolo[2,1-c][1,4]benzodiazepin-5-one]]
Log10 GI50 mean graph midpoint (MG_MID) [1]: −5.19 | Log10 LC50 mean graph midpoint (MG_MID) [1]: −4.01 | Log10 TGI mean graph midpoint (MG_MID) [1]: −4.22 | Log GI 50 [2]: −5.76 mol/L | Log LC 50 [2]: −4.00 mol/L | Log GI 50 [3]: −6.73 mol/L | Log LC 50 [3]: −4.00 mol/L | Log GI 50 [4]: −4.47 mol/L | Log LC 50 [4]: −4.00 mol/L | Log GI 50 [5]: −6.81 mol/L | Log LC 50 [5]: −4.00 mol/L | Log GI 50 [6]: −4.34 mol/L | Log LC 50 [6]: −4.00 mol/L | Log GI 50 [7]: −4.89 mol/L | Log LC 50 [7]: −4.00 mol/L | Log GI 50 [8]: −4.57 mol/L | Log LC 50 [8]: −4.00 mol/L | Log GI 50 [9]: −5.37 mol/L | Log LC 50 [9]: −4.00 mol/L | Log GI 50 [10]: −6.40 mol/L | Log LC 50 [10]: −4.00 mol/L | Log GI 50 [11]: −5.34 mol/L | Log LC 50 [11]: −4.00 mol/L | Log GI 50 [12]: −4.73 mol/L | Log LC 50 [12]: −4.04 mol/L | Log GI 50 [13]: −4.92 mol/L | Log LC 50 [13]: −4.00 mol/L | Log GI 50 [14]: −4.46 mol/L | Log LC 50 [14]: −4.00 mol/L | Log GI 50 [15]: −5.52 mol/L | Log GI 50 [16]: −4.99 mol/L | Log LC 50 [16]: −4.00 mol/L | Log GI 50 [17]: −6.21 mol/L | Log LC 50 [17]: −4.00 mol/L | Log GI 50 [18]: −5.06 mol/L | Log LC 50 [18]: −4.00 mol/L | Log GI 50 [19]: −4.61 mol/L | Log LC 50 [19]: −4.00 mol/L | Log GI 50 [20]: −5.41 mol/L | Log LC 50 [20]: −4.00 mol/L | Log GI 50 [21]: −5.39 mol/L | Log GI 50 [22]: −4.82 mol/L | Log LC 50 [22]: −4.00 mol/L | Log GI 50 [23]: −4.48 mol/L | Log LC 50 [23]: −4.00 mol/L | Log GI 50 [24]: −5.66 mol/L | Log LC 50 [24]: −4.50 mol/L | Log GI 50 [25]: −5.26 mol/L | Log LC 50 [25]: −4.00 mol/L | Log GI 50 [26]: −5.47 mol/L | Log LC 50 [26]: −4.00 mol/L | Log GI 50 [27]: −5.30 mol/L | Log LC 50 [27]: −4.00 mol/L | Log GI 50 [28]: −4.47 mol/L | Log LC 50 [28]: −4.00 mol/L | Log GI 50 [29]: −5.68 mol/L | Log LC 50 [29]: −4.09 mol/L | Log GI 50 [30]: −5.53 mol/L | Log LC 50 [30]: −4.00 mol/L | Log GI 50 [31]: −5.62 mol/L | Log LC 50 [31]: −4.00 mol/L | Log GI 50 [32]: −6.01 mol/L | Log LC 50 [32]: −4.00 mol/L | Log GI 50 [33]: −4.52 mol/L | Log LC 50 [33]: −4.00 mol/L | Log GI 50 [34]: −6.13 mol/L | Log LC 50 [34]: −4.00 mol/L | Log GI 50 [35]: −5.37 mol/L | Log LC 50 [35]: −4.09 mol/L | Log GI 50 [36]: −5.77 mol/L | Log LC 50 [36]: −4.00 mol/L | Log GI 50 [37]: −5.16 mol/L | Log LC 50 [37]: −4.00 mol/L | Log GI 50 [38]: −6.66 mol/L | Log LC 50 [38]: −4.00 mol/L

COc1cc2c(cc1OCCCCN1CCN(CCCCOc3cc4c(cc3OC)C(=O)N3CCC[C@H]3C=N4)CC1)N=C[C@@H]1CCCN1C2=O [Compound VIc, 1,1′-{[(bisbutane-1,N-diyl)piperazine]dioxy}bis[(11aS)-7-methoxy-1,2,3,11a-tetrahydro-5H-pyrrolo[2,1-c][1,4]benzodiazepin-5-one]]
Log10 GI50 mean graph midpoint (MG_MID) [1]: −7.70 | Log10 LC50 mean graph midpoint (MG_MID) [1]: −4.47 | Log10 TGI mean graph midpoint (MG_MID) [1]: −5.95 | Log GI 50 [2]: −7.63 mol/L | Log LC 50 [2]: −4.00 mol/L | Log GI 50 [3]: −7.81 mol/L | Log LC 50 [3]: −4.60 mol/L | Log GI 50 [4]: −6.36 mol/L | Log LC 50 [4]: −4.00 mol/L | Log LC 50 [5]: −4.00 mol/L | Log LC 50 [6]: −4.00 mol/L | Log LC 50 [7]: −5.59 mol/L | Log GI 50 [8]: −7.59 mol/L | Log LC 50 [8]: −4.00 mol/L | Log LC 50 [9]: −4.00 mol/L | Log LC 50 [10]: −4.00 mol/L | Log GI 50 [11]: −7.99 mol/L | Log LC 50 [11]: −6.26 mol/L | Log GI 50 [12]: −7.95 mol/L | Log LC 50 [12]: −4.00 mol/L | Log GI 50 [13]: −6.42 mol/L | Log LC 50 [13]: −4.00 mol/L | Log GI 50 [14]: −7.89 mol/L | Log LC 50 [14]: −4.00 mol/L | Log LC 50 [15]: −4.00 mol/L | Log LC 50 [16]: −4.69 mol/L | Log LC 50 [17]: −4.00 mol/L | Log LC 50 [18]: −4.44 mol/L | Log GI 50 [19]: −7.94 mol/L | Log LC 50 [19]: −4.00 mol/L | Log LC 50 [20]: −4.41 mol/L | Log LC 50 [21]: −7.41 mol/L | Log GI 50 [22]: −7.34 mol/L | Log LC 50 [22]: −4.00 mol/L | Log GI 50 [23]: −7.69 mol/L | Log LC 50 [23]: −4.00 mol/L | Log GI 50 [24]: −7.86 mol/L | Log LC 50 [24]: −6.68 mol/L | Log GI 50 [25]: −6.79 mol/L | Log LC 50 [25]: −4.00 mol/L | Log GI 50 [26]: −7.91 mol/L | Log LC 50 [26]: −4.00 mol/L | Log LC 50 [27]: −4.00 mol/L | Log LC 50 [28]: −4.00 mol/L | Log GI 50 [29]: −7.54 mol/L | Log LC 50 [29]: −4.00 mol/L | Log GI 50 [30]: −7.02 mol/L | Log LC 50 [30]: −4.00 mol/L | Log GI 50 [31]: −7.60 mol/L | Log LC 50 [31]: −4.00 mol/L | Log LC 50 [32]: −4.00 mol/L | Log GI 50 [33]: −7.47 mol/L | Log LC 50 [33]: −4.43 mol/L | Log GI 50 [34]: −7.30 mol/L | Log LC 50 [34]: −4.00 mol/L | Log GI 50 [35]: −7.87 mol/L | Log LC 50 [35]: −7.15 mol/L | Log GI 50 [36]: −7.68 mol/L | Log LC 50 [36]: −4.00 mol/L | Log LC 50 [37]: −4.00 mol/L | Log LC 50 [38]: −4.00 mol/L
